Laboratory results reported in patent US20040068005A1, “Pharmaceutical combinations” (priority 2000, published 2004).

Tests used:
Type in all cases: in vivo, New Zealand white rabbits
[1] = tested on: streptozotocin diabetic rabbits; assay: Femoral nerve conduction velocity, streptozotocin diabetes; settings: for Nerve conduction velocity: femoral “C” fibers, streptozotocin diabetic rabbit; for nerve conduction in “C” fibres: streptozotocin-diabetes model, drug alone, nitroglycerin 12-h patch on vs 12-h patch off over three days
Description: (§1) The experiments are carried out with adult, male New Zealand white rabbits, weighing 3.0-3.5 kg, housed as described in Am. J. Physiol 1994, Heart Circ. Physiol, 35: H2033-H2041 and J. Moll Cell.. Cardiol. 1997, 29: 1977-1983.
These series of experiments were carried out to verify/exclude sensory neuropathy. Left saphenous nerve conduction velocity was determined as described in Eur J. Pharmacol 1999, 386:83-88.
Streptozotocin (40 mg/kg i.v.) produced a decrease in nerve conduction velocity in femoral “A” and “C” fibres, respectively, as determined 8 weeks after streptozotocin injection. […] The combination of any of these drugs with nitroglycerin yielded an improvement of conduction velocity in streptozotocin-diabetic aminals similar to that seen with nitroglycerin alone.

[2] = tested on: hypercholesterolaemic, insulin resistant conscious rabbits; assay: Hyperinsulinaemic euglycaemic glucose clamping (insulin sensitivity), hypercholesterolaemic rabbits; settings: for Glucose infusion rate / M values of hyperinsulinaemic and euglycaemic glucose clamping / synergism (increased effectivity) on glycaemic control: hypercholesterolaemic; for Glucose infusion rate: insulin resistant rabbit; for synergism (increased effectivity) on glycaemic control: drug combined with nitroglycerin; for Insulin sensitivity: percent of means, control = 100
Description: (§2) The experiments are carried out with adult, male New Zealand white rabbits, weighing 3.0-3.5 kg, housed as described in Am. […] Physiol, 35: H2033-H2041 and J. Moll Cell.. Cardiol.
(§3) To estimate insulin sensitivity and/or insulin resistance, hyperinsulinaemic (100 eU/ml) euglycaemic (5.5 mM/l) glucose clamping was used. The glucose clamping values (M) were established as values of glucose infusion rates expressed in mg/kg/min to maintain blood glucose level at 5.5 mM/l.

[3] = tested on: normal conscious rabbits; assay: Hyperinsulinaemic euglycaemic glucose clamping (insulin sensitivity), normal rabbits; settings: for Glucose infusion rate: normal rabbit; for M values of hyperinsulinaemic and euglycaemic glucose clamping: normal rabbits
Description: as §1, §3

[4] = tested on: hypercholesterolaemic, insulin resistant conscious rabbits; assay: Ventricular pacing-induced myocardial ischaemia (ST-segment elevation), hypercholesterolaemic rabbits; settings: for ST-segment elevation / intracavitary ST-segment elevation / ischaemic changes produced by VOP: hypercholesterolaemic; for ST-segment elevation: insulin resistant rabbit; for intracavitary ST-segment elevation / ischaemic changes produced by VOP: insulin resistant rabbits, drug alone
Description: as §2
(§4) The induction of global myocardial ischaemia was based on a method described as above.

[5] = tested on: normal conscious rabbits; assay: Ventricular pacing-induced myocardial ischaemia (ST-segment elevation), normal rabbits; settings: for intracavitary ST-segment elevation / anti-ischaemic effect of combination with nitroglycerin: normal conscious rabbits; for intracavitary ST-segment elevation: drug alone; for anti-ischaemic effect of combination with nitroglycerin: nitroglycerin combined with the drug; for ST-segment elevation: normal rabbit
Description: as §2, §4

[6] = tested on: hypercholesterolaemic, insulin resistant rabbits; assay: Femoral nerve conduction velocity, hyperlipidaemia-induced insulin resistance; settings: femoral “C” fibers, hypercholesterolaemic, insulin resistant rabbit
Description: as §2
These series of experiments were carried out to verify/exclude sensory neuropathy.

[7] = placebo patch, troglitazon 70 mg/kg p.os, metformin 5 mg/kg i.v., glibenclamide 1 mg/kg i.v., idazoxan 2 mg/kg i.v., healthy untreated 6.2
[8] = with active patch (nitroglycerin 0.07 mg/kg/h), alone (Control) or with the drug
[9] = placebo patch, troglitazon 70 mg/kg p.os, metformin 5 mg/kg i.v., glibenclamide 1 mg/kg i.v., idazoxan 2 mg/kg i.v.
[10] = with active patch (nitroglycerin 0.07 mg/kg/h), alone (Control) or together with the drug, same doses
[11] = insulin resistant rabbits, in the presence of nitroglycerin and the drug, compared to the placebo patch group
[12] = placebo patch, troglitazon 70 mg/kg p.os, metformin 5 mg/kg i.v., glibenclamide 1 mg/kg i.v., idazoxan 2 mg/kg i.v., mean
[13] = with active patch (nitroglycerin 0.07 mg/kg/h), alone (Control) or together with the drug, troglitazon 70 mg/kg p.os, metformin 5 mg/kg i.v., glibenclamide 1 mg/kg i.v., idazoxan 2 mg/kg i.v.
[14] = drug alone, troglitazon 70 mg/kg/day p. os over 3 days, metformin 5 mg/kg/day i.v. over 3 days, glibenclamide 1 mg/kg i.v., idazoxan 2 mg/kg i.v.
[15] = metformin 100 mg/kg p.os, ISMN controlled release 5 mg/kg p.os
[16] = nitroglycerin patch 0.07 mg/kg/h, metformin 5 mg/kg i.v., troglitazon 70 mg/kg p.os

COc1ccc(Cl)cc1C(=O)NCCc1ccc(S(=O)(=O)NC(=O)NC2CCCCC2)cc1 [Glibenclamide, glibenclamide]
Nerve conduction velocity [1, 7]: 2.9 ± 0.24 dm/s | Nerve conduction velocity [1, 8]: 3.6 ± 0.2 dm/s | nerve conduction in “C” fibres [1]: Neither troglitazon,nor glibenclamide, idazoxan or metformin produced any effect | Glucose infusion rate [2, 9]: 8.833 mg/kg/min | Glucose infusion rate [2, 10]: 12.333 mg/kg/min | M values of hyperinsulinaemic and euglycaemic glucose clamping [2, 11]: significantly increased | synergism (increased effectivity) on glycaemic control ([2]; insulin resistant rabbits): synergism | Glucose infusion rate [3, 12]: 14.667 mg/kg/min | Glucose infusion rate [3, 13]: 16.500 mg/kg/min | M values of hyperinsulinaemic and euglycaemic glucose clamping [3, 14]: without effect | ST-segment elevation ([4]; placebo patch, same doses): 1.9 ± 0.40 mV | ST-segment elevation [4, 8]: 1.5 ± 0.13 mV | intracavitary ST-segment elevation / ischaemic changes produced by VOP [4]: without effect | intracavitary ST-segment elevation [5]: without effect | anti-ischaemic effect of combination with nitroglycerin [5]: anti-ischaemic effect similar to that produced by nitroglyc erin alone | ST-segment elevation [5, 9]: 1.4 ± 0.08 mV | ST-segment elevation [5, 8]: 0.8 ± 0.08 mV

c1ccc2c(c1)OCC(C1=NCCN1)O2 (centres unmarked) [Idazoxan, idazoxane]
Nerve conduction velocity [1, 7]: 2.8 ± 0.26 dm/s | Nerve conduction velocity [1, 8]: 3.4 ± 0.2 dm/s | nerve conduction in “C” fibres [1]: Neither troglitazon,nor glibenclamide, idazoxan or metformin produced any effect | Glucose infusion rate [2, 9]: 8.500 mg/kg/min | Glucose infusion rate [2, 10]: 12.833 mg/kg/min | M values of hyperinsulinaemic and euglycaemic glucose clamping [2, 11]: significantly increased | synergism (increased effectivity) on glycaemic control ([2]; insulin resistant rabbits): synergism | Glucose infusion rate [3, 12]: 14.667 mg/kg/min | Glucose infusion rate [3, 13]: 16.000 mg/kg/min | M values of hyperinsulinaemic and euglycaemic glucose clamping [3, 14]: without effect | ST-segment elevation ([4]; placebo patch, same doses): 2.3 ± 0.50 mV | ST-segment elevation [4, 8]: 1.8 ± 0.16 mV | intracavitary ST-segment elevation / ischaemic changes produced by VOP [4]: aggravated ischaemic changes | ventricular extrasystoles on VOP ([4]; insulin resistant animals, idazoxan 2 mg/kg i.v.): VOP induced ventricular extrasystolesin the insulin resistant animals | anti-ischaemic effect of combination with nitroglycerin [5]: anti-ischaemic effect similar to that produced by nitroglyc erin alone | ST-segment elevation [5, 9]: 1.4 ± 0.05 mV | ST-segment elevation [5, 8]: 0.8 ± 0.09 mV

CN(C)C(=N)N=C(N)N [Metformin, metformine]
Nerve conduction velocity [1, 7]: 3.1 ± 0.2 dm/s | Nerve conduction velocity [1, 8]: 3.6 ± 0.2 dm/s | nerve conduction in “C” fibres [1]: Neither troglitazon,nor glibenclamide, idazoxan or metformin produced any effect | Glucose infusion rate [2, 9]: 10.833 mg/kg/min | Glucose infusion rate [2, 10]: 14.500 mg/kg/min | Glucose infusion rate [2, 15]: 11.70 ± 1.0300 mg/kg/min | M values of hyperinsulinaemic and euglycaemic glucose clamping ([2]; insulin resistant rabbits vs control, ISMN 5 mg/kg/day (Olicard 40), metformin 100 mg/kg/day p.os over 3 days): significant increase | M values of hyperinsulinaemic and euglycaemic glucose clamping [2, 11]: significantly increased | Insulin sensitivity ([2]; ISMN controlled release 5 mg/kg p.os, metformin 100 mg/kg p.os): 120.6% | Insulin sensitivity [2, 16]: 120.4% | Glucose infusion rate [3, 12]: 15.667 mg/kg/min | Glucose infusion rate [3, 13]: 19.833 mg/kg/min | Glucose infusion rate [3, 15]: 14.80 ± 0.0800 mg/kg/min | M values of hyperinsulinaemic and euglycaemic glucose clamping ([3]; drug alone vs control, isosorbide-5-mononitrate 1 mg/kg/day (Olicard 40), metformin 100 mg/kg/day p.os over 3 days): without any effect | M values of hyperinsulinaemic and euglycaemic glucose clamping [3, 14]: without effect | M values of hyperinsulinaemic and euglycaemic glucose clamping ([3]; in the presence of transdermal nitroglycerin combined with the drug): significantly increased | M values of hyperinsulinaemic and euglycaemic glucose clamping ([3]; metformin 100 mg/kg/day p.os in the presence of ISML (ISMN)): significant increase | ST-segment elevation ([4]; placebo patch, same doses): 2.1 ± 0.13 mV | ST-segment elevation [4, 8]: 1.5 ± 0.08 mV | intracavitary ST-segment elevation / ischaemic changes produced by VOP [4]: without effect | intracavitary ST-segment elevation [5]: without effect | anti-ischaemic effect of combination with nitroglycerin [5]: anti-ischaemic effect similar to that produced by nitroglyc erin alone | ST-segment elevation [5, 9]: 1.4 ± 0.08 mV | ST-segment elevation [5, 8]: 0.8 ± 0.10 mV

Cc1c(C)c2c(c(C)c1O)CCC(C)(COc1ccc(CC3SC(=O)NC3=O)cc1)O2 (centres unmarked) [Troglitazon, troglitazone]
Nerve conduction velocity [1, 7]: 3.2 ± 0.3 dm/s | Nerve conduction velocity [1, 8]: 3.6 ± 0.2 dm/s | Glucose infusion rate [2, 9]: 11.000 mg/kg/min | Glucose infusion rate [2, 10]: 14.667 mg/kg/min | Insulin sensitivity [2, 16]: 122.2% | Nerve conduction velocity ([6]; placebo patch, troglitazon 70 mg/kg p.os): 4.6 ± 0.4 dm/s | Nerve conduction velocity ([6]; with active patch (nitroglycerin 0.07 mg/kg/h), alone (Control) or with troglitazon 70 mg/kg p.os): 5.9 ± 0.2 dm/s | Glucose infusion rate [3, 12]: 17.167 mg/kg/min | Glucose infusion rate [3, 13]: 19.333 mg/kg/min | ST-segment elevation ([4]; placebo patch, same doses): 1.6 ± 0.12 mV | ST-segment elevation [4, 8]: 1.08 ± 0.10 mV | ST-segment elevation [5, 9]: 1.1 ± 0.08 mV | ST-segment elevation [5, 8]: 0.7 ± 0.09 mV
